# Reference: patent US12569509B2, “Method and composition for preventing and treating viral infections” (priority 2017, dated 2026)
# Where “and” joins values, the source holds several entries; their conditions need not be identical. Equal values may be shown once. Entries after “also recorded” stand apart in the source; their conditions may differ.
# Tests used:
# RecQ helicase = biological target: T1, RecQ helicase (Escherichia coli, UniProt P15043); assay: Cell-free fluorescence molecular beacon helicase assay; format: biochemical, E. coli; set-up: Average rate of reaction / Rate (Triplicate): unit: RFU/min; conditions: for Fluorescence at 35 minutes, Run 2 / Fluorescence at time 0, Run 2: duplicate, listed as H; for Average rate of reaction: mean of triplicate; for Rate (Triplicate): rate of reaction=(F0-F35)/35; for Change in helicase activity compared to the DMSO control: any of the tested concentrations (0.06-200 μg/mL)
# T1 construct: a full-length E. coli helicase, RecQ, was used
# human PBMC [1] = assay: LPS stimulated cytokine secretion in human PBMC pretreated with compounds (Phase 2); format: cell-based; set-up: TNF-α concentration in supernatant / IL-1β concentration in supernatant / IL-6 concentration in supernatant / IL-2 concentration in supernatant / IFN-g concentration in supernatant: unit of the concentration uncertain; conditions: for IL-1β Mean Fold-Change (Relative to LPS alone) / IL-6 Mean Fold-Change (Relative to LPS alone) / TNF-α Mean Fold-Change (Relative to LPS alone): 1 ng/mL LPS stimulation for 8 hours, means from 3 donors; for IL-2 concentration in supernatant / TNF-α concentration in supernatant / IL-1β concentration in supernatant / IFN-g concentration in supernatant / IL-6 concentration in supernatant: 8-hour 1 ng/mL LPS stimulation; for IL-2 concentration in supernatant: LLOQ = 1.698 pg/mL; for TNF-α concentration in supernatant: LLOQ = 2.018 pg/mL; for IL-1β concentration in supernatant: LLOQ = 2.299 pg/mL; for IFN-g concentration in supernatant: LLOQ = 2.792 pg/mL; for IL-6 concentration in supernatant: LLOQ = 0.831
# human PBMC [2] = assay: Test compound induced cytokine secretion in human PBMC without LPS, 10 or 26 hours (Phase 1); conditions: 100 μM, 26 hours, no LPS
# Protocol: Secretion of the cytokines TNF-α (A), IL-1β (B) and IL-6 (C) were measured in supernatant of PBMC cultured in the presence of test compounds using a Luminex platform with the Milliplex MAP Human High Sensitivity T Cell Panel Immunology Multiplex Assay. Results are represented as a mean from 3 separate donors in pg/mL.
# Whole blood was collected from 3 human donors and peripheral blood mononuclear cells (PBMC) were isolated using the Ficoll-Paque density gradient method. PBMC were then plated and left untouched for 2 hours to account for a 2 hours pretreatement period (see below for details), and incubated for 8 or 24 hours in a humidified incubator set to maintain 37° C. with 5% CO2, with different concentrations of LPS as per Table 11 in order to determine the optimal stimulation conditions to detect cytokine release. […] RPMI medium alone or supplemented with 0.1% DMSO (to mimic treatment conditions) were used as negative controls.
# At the end of the incubation period, supernatant samples were recovered and stored at −80° C. until analysis (in duplicate) using a Luminex platform with the Milliplex MAP Human High Sensitivity T Cell Panel Immunology Multiplex Assay (Cat. No. HSTCMAG-28SK) with the following selected cytokines of interest: IL-1, IL-2, IL-6, IFN-g and TNF-α. Each assay was defined by one calibration curve and 2 sets of QCs and the results were expressed as pg/mL.
# [3] = TA 0.06 μg/mL (plate column 4, wells A-C)
# [4] = TA 0.2 μg/mL (plate column 5, wells A-C)
# [5] = TA 0.6 μg/mL (plate column 6, wells A-C)
# [6] = TA 2 μg/mL (plate column 7, wells A-C)
# [7] = TA 6 μg/mL (plate column 8, wells A-C)
# [8] = TA 60 μg/mL (plate column 10, wells A-C)
# [9] = TA 200 + Buffer (plate column 12, wells A-C)
# T1 sequence (P15043 whole entry): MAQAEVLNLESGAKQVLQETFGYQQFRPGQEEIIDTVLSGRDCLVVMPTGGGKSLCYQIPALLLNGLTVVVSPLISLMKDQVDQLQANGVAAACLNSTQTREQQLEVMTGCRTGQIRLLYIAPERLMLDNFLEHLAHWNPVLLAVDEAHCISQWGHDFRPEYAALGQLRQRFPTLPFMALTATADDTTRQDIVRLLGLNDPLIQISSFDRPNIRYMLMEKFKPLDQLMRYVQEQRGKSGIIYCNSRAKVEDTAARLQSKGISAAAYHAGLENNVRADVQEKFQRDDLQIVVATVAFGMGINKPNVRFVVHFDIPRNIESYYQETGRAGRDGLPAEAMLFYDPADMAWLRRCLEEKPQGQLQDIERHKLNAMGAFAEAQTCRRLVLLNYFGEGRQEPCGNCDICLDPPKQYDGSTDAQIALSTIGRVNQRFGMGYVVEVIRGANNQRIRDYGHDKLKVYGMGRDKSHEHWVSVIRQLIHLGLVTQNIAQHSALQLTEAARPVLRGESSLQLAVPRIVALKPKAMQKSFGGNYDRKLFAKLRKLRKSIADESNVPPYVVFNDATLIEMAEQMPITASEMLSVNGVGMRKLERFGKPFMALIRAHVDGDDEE
compound,measurement,setting,value
COc1ccc([C@@H]2CC(=O)c3c(O)cc(O[C@@H]4O[C@H](CO[C@@H]5O[C@@H](C)[C@H](O)[C@@H](O)[C@H]5O)[C@@H](O)[C@H](O)[C@H]4O)cc3O2)cc1O [Hesperidin],"Fluorescence at 35 minutes, Run 2",RecQ helicase; 0.06 μg/mL,2987 RFU and 3023 RFU
same,"Fluorescence at time 0, Run 2",RecQ helicase; 0.06 μg/mL,5870 RFU and 7788 RFU
same,Average rate of reaction,RecQ helicase; 0.06 μg/mL,61.47
same,Average rate of reaction,RecQ helicase; 0.2 μg/mL,53.5
same,Rate (Triplicate),RecQ helicase; 0.2 μg/mL,47.51 and 71.4 and 41.6
same,"Fluorescence at 35 minutes, Run 2",RecQ helicase; 0.6 μg/mL,2677 RFU and 2621 RFU
same,"Fluorescence at time 0, Run 2",RecQ helicase; 0.6 μg/mL,9523 RFU and 7721 RFU
same,Average rate of reaction,RecQ helicase; 0.6 μg/mL,107.9714
same,"Fluorescence at 35 minutes, Run 2",RecQ helicase; 2 μg/mL,2624 RFU and 2801 RFU
same,Average rate of reaction,RecQ helicase; 2.0 μg/mL,110.1429
same,Rate (Triplicate),RecQ helicase; 2.0 μg/mL,108.1714 and 140.8 and 81.46
same,"Fluorescence at 35 minutes, Run 2",RecQ helicase; 6 μg/mL,2526 RFU and 2818 RFU
same,"Fluorescence at time 0, Run 2",RecQ helicase; 6 μg/mL,8127 RFU and 9570 RFU
same,Average rate of reaction,RecQ helicase; 6.0 μg/mL,169.7048
same,"Fluorescence at 35 minutes, Run 2",RecQ helicase; 20 μg/mL,3653 RFU and 3927 RFU
same,"Fluorescence at time 0, Run 2",RecQ helicase; 20 μg/mL,4464 RFU and 8870 RFU
same,Average rate of reaction,RecQ helicase; 20.0 μg/mL,55.09
same,"Fluorescence at 35 minutes, Run 2",RecQ helicase; 60 μg/mL,4250 RFU and 4180 RFU
same,"Fluorescence at time 0, Run 2",RecQ helicase; 60 μg/mL,4134 RFU and 3133 RFU
same,Average rate of reaction,RecQ helicase; 60.0 μg/mL,58.1
same,"Fluorescence at 35 minutes, Run 2",RecQ helicase; 200 μg/mL,3913 RFU and 4063 RFU
same,Average rate of reaction,RecQ helicase; 200.0 μg/mL,90.4381
same,"Fluorescence at 0:00:00, Run 1",RecQ helicase; [3],5759 RFU and 9125 RFU and 10456 RFU
same,"Fluorescence at 0:35:00, Run 1",RecQ helicase; [3],5467 RFU and 6877 RFU and 6542 RFU
same,"Fluorescence at 0:00:00, Run 1",RecQ helicase; [4],7735 RFU and 8642 RFU and 7853 RFU
same,"Fluorescence at 0:35:00, Run 1",RecQ helicase; [4],6072 RFU and 6143 RFU and 6397 RFU
same,"Fluorescence at 0:00:00, Run 1",RecQ helicase; [5],7559 RFU and 14137 RFU and 7347 RFU
same,"Fluorescence at 0:35:00, Run 1",RecQ helicase; [5],5304 RFU and 6502 RFU and 5900 RFU
same,"Fluorescence at 0:00:00, Run 1",RecQ helicase; [6],10359 RFU and 11454 RFU and 8360 RFU
same,"Fluorescence at 0:35:00, Run 1",RecQ helicase; [6],6573 RFU and 6526 RFU and 5509 RFU
same,"Fluorescence at 0:00:00, Run 1",RecQ helicase; [7],10222 RFU and 10590 RFU and 17264 RFU
same,"Fluorescence at 0:35:00, Run 1",RecQ helicase; [7],6164 RFU and 5213 RFU and 8880 RFU
same,"Fluorescence at 0:00:00, Run 1",RecQ helicase; [8],10452 RFU and 7252 RFU and 7210 RFU
same,"Fluorescence at 0:35:00, Run 1",RecQ helicase; [8],7008 RFU and 6217 RFU and 5588 RFU
same,"Fluorescence at 0:35:00, Run 1","RecQ helicase; TA 200 μg/mL (plate column 11, wells A-C)",7231 RFU and 6648 RFU and 7799 RFU
same,"Fluorescence at 0:00:00, Run 1",RecQ helicase; [9],10477 RFU and 15660 RFU and 9770 RFU
same,"Fluorescence at 0:35:00, Run 1",RecQ helicase; [9],9155 RFU and 9497 RFU and 7774 RFU
same,Change in helicase activity compared to the DMSO control,RecQ helicase,no observed clear change
same,Change in helicase activity compared to the DMSO control,RecQ helicase; listed as hesperidin,no effect
same,IL-1β Mean Fold-Change (Relative to LPS alone),human PBMC [1]; 10 mM (so in the source),1.14
same,IL-6 Mean Fold-Change (Relative to LPS alone),human PBMC [1]; 10 mM (so in the source),1.10
same,TNF-α Mean Fold-Change (Relative to LPS alone),human PBMC [1]; 10 mM (so in the source),0.98
same,IL-1β Mean Fold-Change (Relative to LPS alone),human PBMC [1]; 100 mM (so in the source),1.30
same,IL-6 Mean Fold-Change (Relative to LPS alone),human PBMC [1]; 100 mM (so in the source),1.24
same,TNF-α Mean Fold-Change (Relative to LPS alone),human PBMC [1]; 100 mM (so in the source),1.20
same,Effect on LPS stimulated secretion of IL-1b,"human PBMC [1]; 200 mM (so in the source), 2 h pretreatment, 1 ng/mL LPS 8 hours",increase; also recorded: appeared to enhance; also recorded: potentiate
same,IL-1β Mean Fold-Change (Relative to LPS alone),human PBMC [1]; 200 mM (so in the source),1.54
same,IL-6 Mean Fold-Change (Relative to LPS alone),human PBMC [1]; 200 mM (so in the source),1.25
same,TNF-α Mean Fold-Change (Relative to LPS alone),human PBMC [1]; 200 mM (so in the source),1.14
same,IL-2 concentration in supernatant,"human PBMC [1]; Donor 1, 10 (unit uncertain)",<LLOQ
same,TNF-α concentration in supernatant,"human PBMC [1]; Donor 1, 10 (unit uncertain)",1889.91 pg/mL
same,IL-1β concentration in supernatant,"human PBMC [1]; Donor 1, 10 (unit uncertain)",3059.18 pg/mL
same,IFN-g concentration in supernatant,"human PBMC [1]; Donor 1, 10 (unit uncertain)",<LLOQ
same,IL-6 concentration in supernatant,"human PBMC [1]; Donor 1, 10 (unit uncertain)",1099.07 pg/mL
same,IL-2 concentration in supernatant,"human PBMC [1]; Donor 1, 100 (unit uncertain)",<LLOQ
same,TNF-α concentration in supernatant,"human PBMC [1]; Donor 1, 100 (unit uncertain)",2577.7 pg/mL
same,IL-1β concentration in supernatant,"human PBMC [1]; Donor 1, 100 (unit uncertain)",3955.41 pg/mL
same,IFN-g concentration in supernatant,"human PBMC [1]; Donor 1, 100 (unit uncertain)",<LLOQ
same,IL-6 concentration in supernatant,"human PBMC [1]; Donor 1, 100 (unit uncertain)",1441.95 pg/mL
same,IL-2 concentration in supernatant,"human PBMC [1]; Donor 1, 200 (unit uncertain)",<LLOQ
same,TNF-α concentration in supernatant,"human PBMC [1]; Donor 1, 200 (unit uncertain)",2290.76 pg/mL
same,IL-1β concentration in supernatant,"human PBMC [1]; Donor 1, 200 (unit uncertain)",4853.62 pg/mL
same,IFN-g concentration in supernatant,"human PBMC [1]; Donor 1, 200 (unit uncertain)",<LLOQ
same,IL-6 concentration in supernatant,"human PBMC [1]; Donor 1, 200 (unit uncertain)",1485.45 pg/mL
same,IL-2 concentration in supernatant,"human PBMC [1]; Donor 2, 10 (unit uncertain)",<LLOQ
same,TNF-α concentration in supernatant,"human PBMC [1]; Donor 2, 10 (unit uncertain)",1091.56 pg/mL
same,IL-1β concentration in supernatant,"human PBMC [1]; Donor 2, 10 (unit uncertain)",2855.56 pg/mL
same,IFN-g concentration in supernatant,"human PBMC [1]; Donor 2, 10 (unit uncertain)",<LLOQ
same,IL-2 concentration in supernatant,"human PBMC [1]; Donor 2, 100 (unit uncertain)",<LLOQ
same,TNF-α concentration in supernatant,"human PBMC [1]; Donor 2, 100 (unit uncertain)",1254.84 pg/mL
same,IL-1β concentration in supernatant,"human PBMC [1]; Donor 2, 100 (unit uncertain)",2344.12 pg/mL
same,IFN-g concentration in supernatant,"human PBMC [1]; Donor 2, 100 (unit uncertain)",<LLOQ
same,IL-2 concentration in supernatant,"human PBMC [1]; Donor 2, 200 (unit uncertain)",<LLOQ
same,TNF-α concentration in supernatant,"human PBMC [1]; Donor 2, 200 (unit uncertain)",1621.58 pg/mL
same,IL-1β concentration in supernatant,"human PBMC [1]; Donor 2, 200 (unit uncertain)",3244.42 pg/mL
same,IFN-g concentration in supernatant,"human PBMC [1]; Donor 2, 200 (unit uncertain)",<LLOQ
same,IL-2 concentration in supernatant,"human PBMC [1]; Donor 3, 10 (unit uncertain)",<LLOQ
same,TNF-α concentration in supernatant,"human PBMC [1]; Donor 3, 10 (unit uncertain)",3632.86 pg/mL
same,IL-1β concentration in supernatant,"human PBMC [1]; Donor 3, 10 (unit uncertain)",3800.6 pg/mL
same,IFN-g concentration in supernatant,"human PBMC [1]; Donor 3, 10 (unit uncertain)",<LLOQ
same,IL-2 concentration in supernatant,"human PBMC [1]; Donor 3, 100 (unit uncertain)",<LLOQ
same,TNF-α concentration in supernatant,"human PBMC [1]; Donor 3, 100 (unit uncertain)",3808.52 pg/mL
same,IL-1β concentration in supernatant,"human PBMC [1]; Donor 3, 100 (unit uncertain)",4941.84 pg/mL
same,IFN-g concentration in supernatant,"human PBMC [1]; Donor 3, 100 (unit uncertain)",<LLOQ
same,IL-2 concentration in supernatant,"human PBMC [1]; Donor 3, 200 (unit uncertain)",<LLOQ
same,TNF-α concentration in supernatant,"human PBMC [1]; Donor 3, 200 (unit uncertain)",2731.72 pg/mL
same,IL-1β concentration in supernatant,"human PBMC [1]; Donor 3, 200 (unit uncertain)",4883.06 pg/mL
same,IFN-g concentration in supernatant,"human PBMC [1]; Donor 3, 200 (unit uncertain)",<LLOQ
same,"Secretion of IL-1β and IL-6, compound alone",human PBMC [2],"in one donor, secretion of IL-1β, and IL-6 was also observed"
